Key:
[1] = system: Escherichia coli ATCC 112229; test: Time kill method (ASTM E 2315), E. coli; assay type: cell-based; conditions: 0.5% ADBAC Quat
Experimental: (§1) (1) Determination of Time Kill Activity: • (a) The activity of antimicrobial compositions was measured by the time kill method [ASTM E 2315 Standard Guide for Assessment of Antimicrobial Activity Using a Time Kill Procedure], whereby the survival of challenged organisms exposed to an antimicrobial test composition is […] as a function of time. In this test, a diluted aliquot of the composition is brought into contact with a known population of test bacteria for a specified time period at a specified temperature. The test composition is neutralized at the end of the time period, which arrests the antimicrobial activity of the composition. The percent or, alternatively, log reduction from the original bacteria population is calculated. In general, the time kill method is known to those skilled in the art. In addition, comparative data on the foam profile of representative systems is shown. • (b) The composition can be tested at any concentration from 0.01-100%. The choice of which concentration to use is at the discretion of the investigator, and suitable concentrations are readily determined by those skilled in the art. All testing if performed in triplicate, the results are combined, and the average log reduction is reported. • (c) The choice of contact time period also is at the discretion of the investigator. Any contact time period can be chosen. Typical contact times range from 15 second to 5 minutes, with 30 seconds and 1 minute being typical contact times. The contact temperature also can be any temperature, typically room temperature, or about 25 degrees Celsius. • (d) The microbial suspension, or test inoculum, is prepared by growing a microbial culture on any appropriate solid media (e.g., agar). The microbial population then is washed from the agar with sterile physiological saline and the population of the microbial suspension is adjusted to about 10^8 colony forming units per ml (cfu/ml). • (e) The table below lists the test microbial cultures used in the following tests and includes the name of the bacteria, the ATCC (American Type Culture Collection) identification number, and the abbreviation for the name of the organism used hereafter.
(§2) S. aureus is a Gram positive bacteria, whereas, E. coli is a Gram negative bacteria.
(§3) The log reduction is calculated using the formula: Log reduction=log10(numbers control)−log10(test sample survivors).
(§4) The following table correlates percent reduction in microbial population to log reduction: […]

[2] = system: Staphylococcus aureus ATCC 6538; test: Time kill method (ASTM E 2315), S. aureus; assay type: cell-based; conditions: 0.5% ADBAC Quat
Experimental: as §1, §2, §3, §4

[3] = 30 seconds exposure, 1.95% w/w foam boosting agent (amine oxide), 1.25% Poly Trimoniumhydroxypropyl Cocoglucosides Chloride
[4] = 30 seconds exposure, 3.0% w/w foam boosting agent (amine oxide), 1.25% Poly Trimoniumhydroxypropyl Cocoglucosides Chloride
[5] = 30 seconds exposure, 4.2% w/w foam boosting agent (amine oxide), 1.25% Poly Trimoniumhydroxypropyl Cocoglucosides Chloride
[6] = Table 10, 1.25% w/w quaternized sugar-derived surfactant, 1.95% Alkyl Dimethyl Amine Oxide

Q: Which “E. coli Log Reduction” value [1, 3] does the source give for Alkyl Dimethyl Amine Oxide here?
A: >5.5

Q: And the “E. coli Log Reduction” value [1, 4]?
A: >5.5

Q: What about the “E. coli Log Reduction” value [1, 5] of the same substance?
A: >5.5

Q: And the “S. aureus Log Reduction” value [2, 3]?
A: >5.5

Q: And the “S. aureus Log Reduction” value [2, 4]?
A: >5.5

Q: And the “S. aureus Log Reduction” value [2, 5]?
A: >5.5

Q: For “Cocoglucosides Hydroxypropyl-trimonium Chloride [TM8610]”, which “E. coli Log Reduction” value [1, 6] is on record?
A: >5.0

Q: And the “S. aureus Log Reduction” value [2, 6]?
A: >5.0

Q: What does the source list for “Lauridimonium-hydroxypropyl Cocoglucosides Chloride [Formula L8610]”?
A: E. coli Log Reduction [1, 6]: >5.0; S. aureus Log Reduction [2, 6]: >5.0

Q: “Lauridimonium-hydroxypropyl Laurylglucosides Chloride [Formula L1210]” was tested. Which “E. coli Log Reduction” value [1, 6] did it give?
A: >5.0

Q: What about the “S. aureus Log Reduction” value [2, 6] of the same substance?
A: >5.0

Q: For “Laurylglucosides Hydroxypropyl-trimonium Chloride [TM1212]”, which “E. coli Log Reduction” value [1, 6] is on record?
A: >5.0

Q: And the “S. aureus Log Reduction” value [2, 6]?
A: >5.0

Q: With “Stearyldimonium-hydroxypropyl Laurylglucosides Chloride [Formula S1218]” as the substance, how does the “E. coli Log Reduction” value [1, 6] read?
A: >5.0

Q: And the “S. aureus Log Reduction” value [2, 6]?
A: >5.0

— patent publication US9474703B2, “Antimicrobial compositions containing cationic active ingredients and quaternary sugar derived surfactants” (Ecolab USA Inc., priority 2010, dated 2016)
